According to patent US9365576B2, “Pyrrolopyrrolidinone compounds” (Novartis AG, priority 2012, dated 2016):

target: human MDM2 protein (amino acids 2-188) (Homo sapiens (Human), UniProt Q00987); test: TR-FRET assay, p53-MDM2 Assay 2 (modified); type: binding; settings: TR-FRET; 0.1 nM MDM2, 0.1 nM Europium labeled streptavidin, Tecan genios Pro reader; read-out: IC50 p53-MDM2 Assay 2
Outline: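 Biotinylated human MDM2 (aa 2–188, 1.25 nM) was preincubated 15 min at room temperature with 0.625 nM Eu-streptavidin, then 10 nM Cy5-p53 peptide (aa 18–26) added for 15 min. TR-FRET ratio 665/620 nm (excitation 340 nm) was read; IC50 came from curve fitting.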

Sequence of human MDM2 protein (amino acids 2-188) (Q00987 2-188): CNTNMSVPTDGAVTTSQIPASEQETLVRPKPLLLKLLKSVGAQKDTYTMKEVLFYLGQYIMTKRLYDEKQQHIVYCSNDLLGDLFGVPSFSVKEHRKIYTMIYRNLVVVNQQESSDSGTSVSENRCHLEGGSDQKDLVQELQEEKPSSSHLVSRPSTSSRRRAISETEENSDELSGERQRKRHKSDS

| SMILES | IC50 [nM] |
| --- | --- |
| CNc1ncc(-c2cc3c(n2C(C)C)C(c2ccc(C#N)cc2)N(c2c[nH]c(=O)c(Cl)c2)C3=O)c(OC)n1 (stereo not drawn) [Example 137, 4-[5-(5-Chloro-6-oxo-1,6-dihydro-pyridin-3-yl)-1-isopropyl-2-(4-methoxy-2-methylamino-pyrimidin-5-yl)-4-oxo-1,4,5,6-tetrahydro-pyrrolo[3,4-b]pyrrol-6-yl]-benzonitrile] | 0.321 |
| COc1nc(N)ncc1-c1cc2c(n1C(C)C)C(c1ccc(Cl)cc1)N(c1c[nH]c(=O)c(Cl)c1)C2=O (stereo not drawn) [Example 138, 2-(2-Amino-4-methoxy-pyrimidin-5-yl)-5-(5-chloro-6-oxo-1,6-dihydro-pyridin-3-yl)-6-(4-chloro-phenyl)-1-isopropyl-5,6-dihydro-1H-pyrrolo[3,4-b]pyrrol-4-one] | 0.341 |
| COc1ncc(-c2cc3c(n2C(C)C)C(c2ccc(Cl)cc2)N(c2c[nH]c(=O)c(Cl)c2)C3=O)c(OC)n1 (stereo not drawn) [Example 139, 5-(5-Chloro-6-oxo-1,6-dihydro-pyridin-3-yl)-6-(4-chloro-phenyl)-2-(2,4-dimethoxy-pyrimidin-5-yl)-1-isopropyl-5,6-dihydro-1H-pyrrolo[3,4-b]pyrrol-4-one] | 0.266 |
| COc1nc(N(C)C)ncc1-c1cc2c(n1C(C)C)C(c1ccc(Cl)cc1)N(c1c[nH]c(=O)c(Cl)c1)C2=O (stereo not drawn) [Example 140, 5-(5-Chloro-6-oxo-1,6-dihydro-pyridin-3-yl)-6-(4-chloro-phenyl)-2-(2-dimethylamino-4-methoxy-pyrimidin-5-yl)-1-isopropyl-1-5,6-dihydro-1H-pyrrolo[3,4-b]pyrrol-4-one] | 0.231 |
| COc1nc(N)ncc1-c1cc2c(n1C(C)C)C(c1ccc(Cl)cc1)N([C@H]1CC[C@H](OC)CC1)C2=O (stereo partly drawn) [Example 141, 2-(2-Amino-4-methoxy-pyrimidin-5-yl)-6-(4-chloro-phenyl)-1-isopropyl-5-(trans-4-methoxy-cyclohexyl)-5,6-dihydro-1H-pyrrolo[3,4-b]pyrrol-4-one] | 6.85 |
| COc1nc(N(C)C)ncc1-c1cc2c(n1C(C)C)C(c1ccc(Cl)cc1)N([C@H]1CC[C@H](OC)CC1)C2=O (stereo partly drawn) [Example 142, 6-(4-Chloro-phenyl)-2-(2-dimethylamino-4-methoxy-pyrimidin-5-yl)-1-isopropyl-5-(trans-4-methoxy-cyclohexyl)-5,6-dihydro-1H-pyrrolo[3,4-b]pyrrol-4-one] | 0.74 |
| COc1ncc(-c2cc3c(n2C(C)C)C(c2ccc(Cl)cc2)N([C@H]2CC[C@H](OC)CC2)C3=O)c(OC)n1 (stereo partly drawn) [Example 143, 6-(4-Chloro-phenyl)-2-(2,4-dimethoxy-pyrimidin-5-yl)-1-isopropyl-5-(trans-4-methoxy-cyclohexyl)-5,6-dihydro-1H-pyrrolo[3,4-b]pyrrol-4-one] | 1.69 |
| COc1ccccc1-c1cc2c(n1C(C)C)C(c1ccc(Cl)cc1C)N(c1cc(Cl)c(=O)n(C)c1)C2=O (stereo not drawn) [Example 144, 5-(5-Chloro-1-methyl-6-oxo-1,6-dihydro-pyridin-3-yl)-6-(4-chloro-2-methyl-phenyl)-1-isopropyl-2-(2-methoxy-phenyl)-5,6-dihydro-1H-pyrrolo[3,4-b]pyrrol-4-one] | 0.554 |
| CNC(=O)c1ccc(OC)c(-c2cc3c(n2C(C)C)C(c2ccc(Cl)cc2C)N(c2cc(Cl)c(=O)n(C)c2)C3=O)c1 (stereo not drawn) [Example 145, 3-[5-(5-Chloro-1-methyl-6-oxo-1,6-dihydro-pyridin-3-yl)-6-(4-chloro-2-methyl-phenyl)-1-isopropyl-4-oxo-1,4,5,6-tetrahydro-pyrrolo[3,4-b]pyrrol-2-yl]-4-methoxy-N-methyl-benzamide] | 0.187 |
| COc1ncc(-c2cc3c(n2C(C)C)C(c2ccc(Cl)cc2C)N(c2cc(Cl)c(=O)n(C)c2)C3=O)c(OC)n1 (stereo not drawn) [Example 146, 5-(5-Chloro-1-methyl-6-oxo-1,6-dihydro-pyridin-3-yl)-6-(4-chloro-2-methyl-phenyl)-2-(2,4-dimethoxy-pyrimidin-5-yl)-1-isopropyl-5,6-dihydro-1H-pyrrolo[3,4-b]pyrrol-4-one] | 0.216 |
| COc1nc(N(C)C)ncc1-c1cc2c(n1C(C)C)C(c1ccc(Cl)cc1C)N(c1cc(Cl)c(=O)n(C)c1)C2=O (stereo not drawn) [Example 147, 5-(5-Chloro-1-methyl-6-oxo-1,6-dihydro-pyridin-3-yl)-6-(4-chloro-2-methyl-phenyl)-2-(2-dimethylamino-4-methoxy-pyrimidin-5-yl)-1-isopropyl-5,6-dihydro-1H-pyrrolo[3,4-b]pyrrol-4-one] | 0.164 |
| COc1nc(N)ncc1-c1cc2c(n1C(C)C)C(c1ccc(Cl)cc1C)N(c1cc(Cl)c(=O)n(C)c1)C2=O (stereo not drawn) [Example 148, 2-(2-Amino-4-methoxy-pyrimidin-5-yl)-5-(5-chloro-1-methyl-6-oxo-1,6-dihydro-pyridin-3-yl)-6-(4-chloro-2-methyl-phenyl)-1-isopropyl-5,6-dihydro-1H-pyrrolo[3,4-b]pyrrol-4-one] | 0.592 |
| COc1cn(C)c(=O)cc1-c1cc2c(n1C(C)C)C(c1ccc(Cl)cc1)N(c1cc(Cl)ccc1C)C2=O (stereo not drawn) [Example 149, 5-(5-Chloro-2-methyl-phenyl)-6-(4-chloro-phenyl)-1-isopropyl-2-(5-methoxy-1-methyl-2-oxo-1,2-dihydro-pyridin-4-yl)-5,6-dihydro-1H-pyrrolo[3,4-b]pyrrol-4-one] | 0.11 |
| COc1cn(C)c(=O)cc1-c1cc2c(n1C(C)C)C(c1ccc(Cl)cc1)N(c1cc(Cl)c(=O)n(C)c1)C2=O (stereo not drawn) [Example 150, 5-(5-Chloro-1-methyl-6-oxo-1,6-dihydro-pyridin-3-yl)-6-(4-chloro-phenyl)-1-isopropyl-2-(5-methoxy-1-methyl-2-oxo-1,2-dihydro-pyridin-4-yl)-5,6-dihydro-1H-pyrrolo[3,4-b]pyrrol-4-one] | 0.254 |
| CNc1ncc(-c2cc3c(n2C(C)C)C(c2ccc(Cl)cc2C)N(c2cc(Cl)c(=O)n(C)c2)C3=O)c(OC)n1 (stereo not drawn) [Example 151, 5-(5-Chloro-1-methyl-6-oxo-1,6-dihydro-pyridin-3-yl)-6-(4-chloro-2-methyl-phenyl)-1-isopropyl-2-(4-methoxy-2-methylamino-pyrimidin-5-yl)-5,6-dihydro-1H-pyrrolo[3,4-b]pyrrol-4-one] | 0.243 |

Results, then the compound that gave them:

| IC50 [nM] | SMILES |
| --- | --- |
| 0.166 | CNc1ncc(-c2cc3c(n2C(C)C)C(c2ccc(Cl)cc2)N(c2c[nH]c(=O)c(Cl)c2)C3=O)c(OC)n1 (stereo not drawn) [Example 152, 5-(5-Chloro-6-oxo-1,6-dihydro-pyridin-3-yl)-6-(4-chloro-phenyl)-1-isopropyl-2-(4-methoxy-2-methylamino-pyrimidin-5-yl)-5,6-dihydro-1H-pyrrolo[3,4-b]pyrrol-4-one] |
| 0.422 | COc1ncc(-c2cc3c(n2C(C)C)C(c2ccc(C#N)cc2)N(c2cc(Cl)c(=O)n(C)c2)C3=O)c(OC)n1 (stereo not drawn) [Example 153, 4-[5-(5-Chloro-1-methyl-6-oxo-1,6-dihydro-pyridin-3-yl)-2-(2,4-dimethoxy-pyrimidin-5-yl)-1-isopropyl-4-oxo-1,4,5,6-tetrahydro-pyrrolo[3,4-b]pyrrol-6-yl]-benzonitrile] |
| 0.328 | COc1nc(N)ncc1-c1cc2c(n1C(C)C)[C@H](c1ccc(C#N)cc1)N(c1cccc(Cl)c1F)C2=O [Example 154, 4-[(S)-2-(2-Amino-4-methoxy-pyrimidin-5-yl)-5-(3-chloro-2-fluoro-phenyl)-1-isopropyl-4-oxo-1,4,5,6-tetrahydro-pyrrolo[3,4-b]pyrrol-6-yl]-benzonitrile] |
| 43 | COc1nc(N)ncc1-c1cc2c(n1C(C)C)[C@@H](c1ccc(C#N)cc1)N(c1cccc(Cl)c1F)C2=O [Example 155, 4-[(R)-2-(2-Amino-4-methoxy-pyrimidin-5-yl)-5-(3-chloro-2-fluoro-phenyl)-1-isopropyl-4-oxo-1,4,5,6-tetrahydro-pyrrolo[3,4-b]pyrrol-6-yl]-benzonitrile] |
| 0.122 | COc1ncc(-c2cc3c(n2C(C)C)C(c2ccc(Cl)cc2)N(c2cc(Cl)c(=O)n(C)c2F)C3=O)c(OC)n1 (stereo not drawn) [Example 156, 5-(5-Chloro-2-fluoro-1-methyl-6-oxo-1,6-dihydro-pyridin-3-yl)-6-(4-chloro-phenyl)-2-(2,4-dimethoxy-pyrimidin-5-yl)-1-isopropyl-5,6-dihydro-1H-pyrrolo[3,4-b]pyrrol-4-one] |
| 7.9 | COc1ncc(-c2cc3c(n2C(C)C)C(c2ccc(C#N)cc2)N(C2CCOCC2)C3=O)c(OC)n1 (stereo not drawn) [Example 157, 4-[2-(2,4-Dimethoxy-pyrimidin-5-yl)-1-isopropyl-4-oxo-5-(tetrahydro-pyran-4-yl)-1,4,5,6-tetrahydro-pyrrolo[3,4-b]pyrrol-6-yl]-benzonitrile] |
| 1.34 | COc1nc(N(C)C)ncc1-c1cc2c(n1C(C)C)C(c1ccc(C#N)cc1)N(C1CCOCC1)C2=O (stereo not drawn) [Example 158, 4-[2-(2-Dimethylamino-4-methoxy-pyrimidin-5-yl)-1-isopropyl-4-oxo-5-(tetrahydro-pyran-4-yl)-1,4,5,6-tetrahydro-pyrrolo[3,4-b]pyrrol-6-yl]-benzonitrile] |
| 0.161 | COc1nc(N(C)C)ncc1-c1cc2c(n1C(C)C)C(c1ccc(Cl)cc1)N(C1CN(C)C(=O)N(C)C1)C2=O (stereo not drawn) [Example 159, 6-(4-Chloro-phenyl)-2-(2-dimethylamino-4-methoxy-pyrimidin-5-yl)-5-(1,3-dimethyl-2-oxo-hexahydro-pyrimidin-5-yl)-1-isopropyl-5,6-dihydro-1H-pyrrolo[3,4-b]pyrrol-4-one] |
| 0.144 | COc1ncc(-c2cc3c(n2C(C)C)[C@H](c2ccc(Cl)cc2C)N(c2cc(Cl)c(=O)n(C)c2)C3=O)c(OC)n1 [Example 160, (S)-5-(5-Chloro-1-methyl-6-oxo-1,6-dihydro-pyridin-3-yl)-6-(4-chloro-2-methyl-phenyl)-2-(2,4-dimethoxy-pyrimidin-5-yl)-1-isopropyl-5,6-dihydro-1H-pyrrolo[3,4-b]pyrrol-4-one] |
